Data taken from patent publication US10857105B2, “Compounds and compositions for intracellular delivery of therapeutic agents” (ModernaTX, Inc., priority 2017, dated 2020).

Tests used:
[1] = Particle size and polydispersity index of nanoparticle compositions (Zetasizer Nano ZS); format: physicochemical
Procedure: A Zetasizer Nano ZS (Malvern Instruments Ltd, Malvern, Worcestershire, UK) can be used to determine the particle size, the polydispersity index (PDI) and the zeta potential of the nanoparticle compositions in 1×PBS in determining particle size and 15 mM PBS in determining zeta potential.
(§1) Initial studies were performed to compare the delivery efficiency of nanoparticle compositions including various compounds according to Formula (I), (IA), (IB), (II), (IIa), (IIb), (IIc), (IId), (IIe), (IIf), (IIg), or (III). The cationic lipid MC3 is a current standard in the art. Accordingly, the standard MC3 formulation including about 50 mol % MC3, about 10 mol % DSPC, about 38.5 mol % cholesterol, and about 1.5 mol % PEG-DMG was used as a basis for this study. Nanoparticle compositions including DSPC as a phospholipid, cholesterol as a structural lipid, PEG-DMG as a PEG lipid, an RNA, and a compound according to Formula (I), (IA), (IB), (II), (IIa), (IIb), (IIc), (IId), (IIe), (IIf), (IIg), or (III) selected from Compounds 1-159, 168-170, and 173-175 were prepared according to or via methods similar to those described in Examples 1 and 2. The ratios of the lipids were 50:10:38.5:1.5 mol % for the lipid according to Formula (I), (IA), (IB), (II), (IIa), (IIb), (IIc), (IId), (IIe), (IIf), (IIg), or (III):DSPC:cholesterol:PEG-DMG. The RNA used was an mRNA encoding luciferase (Luc) or hEPO, wherein each uridine was replaced N1-methyl pseudouridine. Tables 1A-1E summarize the content and characteristics of the formulations.

[2] = system: modified luciferase; test: Luciferase expression in liver, lung, spleen and femur 6 hours after intravenous administration to mice; format: in vivo; conditions: 6 hours after intravenous 0.5 mpk, mice
Procedure: The efficacy of the nanoparticle compositions presented in Table 1A was further evaluated by measuring the expression of modified luciferase in the liver, lung, spleen, and femur upon administration of a given composition. Formulations were administered intravenously to mice (n=3) at a dosage of 0.5 mpk and bioluminescence measured after 6 hours. The standard MC3 formulation and a PBS control were also tested. […] Flux in the liver was lowest for compositions including Compounds 58, 59, 137, and 141. Flux in the spleen was highest for compositions including Compounds 4, 7, 33, 34, 48, 53, 108, 129, 130, and 148, and lowest for compositions including Compounds 9, 59, 124, and 141.

[3] = Encapsulation efficiency of RNA in nanoparticle compositions (RIBOGREEN assay); format: physicochemical; conditions: Table 1A; lipid:DSPC:cholesterol:PEG-DMG 50:10:38.5:1.5 mol %
Procedure: For nanoparticle compositions including an RNA, a QUANT-IT™ RIBOGREEN® RNA assay (Invitrogen Corporation Carlsbad, Calif.) can be used to evaluate the encapsulation of an RNA by the nanoparticle composition. The samples are diluted to a concentration of approximately 5 μg/mL, in a TE buffer solution (10 mM Tris-HCl, 1 mM EDTA, pH 7.5). 50 μL of the diluted samples are transferred to a polystyrene 96 well plate and either 50 μL of TE buffer or 50 μL of a 2% Triton X-100 solution is added to the wells. The plate is incubated at a temperature of 37° C. for 15 minutes. The RIBOGREEN® reagent is diluted 1:100 in TE buffer, and 100 μL of this solution is added to each well. The fluorescence intensity can be measured using a fluorescence plate reader (Wallac Victor 1420 Multilabel Counter; Perkin Elmer, Waltham, Mass.) at an excitation wavelength of, for example, about 480 nm and an emission wavelength of, for example, about 520 nm. The fluorescence values of the reagent blank are subtracted from that of each of the samples and the percentage of free RNA is determined by dividing the fluorescence intensity of the intact sample (without addition of Triton X-100) by the fluorescence value of the disrupted sample (caused by the addition of Triton X-100).
as §1

[4] = Table 1A, lipid:DSPC:cholesterol:PEG-DMG 50:10:38.5:1.5 mol %
[5] = Table 1C, compositions for subcutaneous administration

Size [1, 4]	EE [3]	Size [1, 5]	Size ([1]; Table 1D, compositions for subcutaneous administration, # formulated with hEPO mRNA)	SMILES	Total Flux, Liver [2]	Total Flux, Lung [2]	Total Flux, Spleen [2]
60.8 nm	–	–	–	CCCCCCCCCOC(=O)CCCCCCCN(CCO)CCCCCCCC(=O)Oc1ccc(CCCCC)cc1 [Compound 119, Nonyl 8-((2-hydroxyethyl)(8-oxo-8-(4-pentylphenoxy)octyl)amino)octanoate]	–	–	–
–	90.82%	–	–	CCCCCCCCCOC(=O)CCCCCCCN(CCO)CCCCCCCC(=O)OC(CC)CCCCCCCC (stereo not shown) [Compound 35, nonyl 8-((2-hydroxyethyl)(8-oxo-8-(undecan-3-yloxy)octyl)amino) octanoate]	1.63E+08	2.06E+06	1.23E+08
92.1 nm	–	88.6 nm	–	CCCCCCCCC(CC)OC(=O)CCCCCN(CCO)CCCCCCCC(=O)OC(CCCCCCCC)CCCCCCCC (stereo not shown) [Compound 75, Heptadecan-9-yl 8-((2-hydroxyethyl)(6-oxo-6-(undecan-3-yloxy)hexyl)amino)octanoate]	1.45E+09	3.92E+06	5.66E+06
65.6 nm	–	–	–	CCCCCCCCC(CCC)OC(=O)CCCN(CCO)CCCCCCCC(=O)OC(CCCCCCCC)CCCCCCCC (stereo not shown) [Compound 74, Heptadecan-9-yl 8-((4-(dodecan-4-yloxy)-4-oxobutyl)(2-hydroxyethyl)amino)octanoate]	1.99E+09	6.93E+06	2.26E+07
77.4 nm	–	–	–	CCCCCCCCCOC(=O)CCCN(C)CCCCCCCC(=O)OC(CCCCCCCC)CCCCCCCC [Compound 126, Heptadecan-9-yl 8-(methyl(4-(nonyloxy)-4-oxobutyl)amino)octanoate]	7.41E+08	2.68E+06	1.87E+07
72.1 nm	–	–	–	CCCCCCCCCOC(=O)CCCCCCCN(CCO)CCCCCCCC(=O)Oc1ccc(CCCCC)c(CCCCC)c1 [Compound 118, 3,4-Dipentylphenyl 8-((2-hydroxyethyl)(8-(nonyloxy)-8-oxooctyl)amino)octanoate]	1.72E+08	1.98E+06	2.49E+07
84.4 nm	–	–	–	CCCCCCCCCOC(=O)CCCCCCCN(CCCCCCCC(=O)OC(CCCCCCCC)CCCCCCCC)CCCN1C(=O)CNC1=O [Compound 174, Heptadecan-9-yl 8-((3-(2,5-dioxoimidazolidin-1-yl)propyl)(8-(nonyloxy)-8-oxooctyl)amino)octanoate]	–	–	–
61.3 nm	–	–	–	CCCCCCCCC(CCCCCCCC)OC(=O)CCCCCCCN(C)CCCCCCCC(=O)OC(CCCCCCCC)CCCCCCCC [Compound 124, Di(heptadecan-9-yl) 8,8′-(methylazanediyl)dioctanoate]	8.46E+06	5.67E+04	8.06E+04
–	81.45%	–	–	CCCCCCCCCOC(=O)CCCCCCCN(CCO)CCCCCCCC(=O)OC(C)CCCCCCCC (stereo not shown) [Compound 36, decan-2-yl 8-((2-hydroxyethyl)(8-(nonyloxy)-8-oxooctyl)amino) octanoate]	2.65E+07	5.82E+05	6.14E+07
64.5 nm	–	–	–	CCCCCCCCCOC(=O)CCCCCCCN(CCCCCCCC(=O)OC(CCCCCCCC)CCCCCCCC)CCCn1ccc(N)nc1=O [Compound 115, Heptadecan-9-yl 8-((3-(4-amino-2-oxopyrimidin-1(2H)-yl)propyl)(8-(nonyloxy)-8-oxooctyl)amino)octanoate]	–	–	–
63.9 nm	–	–	–	CCCCCCCCC(CCCCCCCC)OC(=O)CCCCCCCN(CCO)CCCCCCCC(=O)OC(CCCCCCCC)C1CC1 (stereo not shown) [Compound 65, 1-Cyclopropylnonyl 8-((8-(heptadecan-9-yloxy)-8-oxooctyl)(2-hydroxyethyl)amino)octanoate]	9.56E+09	3.79E+07	6.57E+07
76.8 nm	–	77.3 nm	–	CCCCCCCCC(CC)OC(=O)CCCN(CCO)CCCCCCCC(=O)OC(CCCCCCCC)CCCCCCCC (stereo not shown) [Compound 72, Heptadecan-9-yl 8-((2-hydroxyethyl)(4-oxo-4-(undecan-3-yloxy)butyl)amino)octanoate]	7.97E+08	1.05E+07	6.40E+06
73.7 nm	–	–	–	CCCCCCCCC(C)OC(=O)CCCN(CCO)CCCCCCCC(=O)OC(CCCCCCCC)CCCCCCCC (stereo not shown) [Compound 70, Heptadecan-9-yl 8-((4-(decan-2-yloxy)-4-oxobutyl)(2-hydroxyethyl)amino)octanoate]	8.55E+08	6.32E+06	2.06E+06
107.1 nm	–	–	–	CCCCCCCCC(C)OC(=O)CCCCCCCN(CCO)CCCCCCCC(=O)N(CCCCCCCC)CCCCCCCC (stereo not shown) [Compound 130, Decan-2-yl 8-((8-(dioctylamino)-8-oxooctyl)(2-hydroxyethyl)amino)octanoate]	8.17E+09	5.88E+07	1.35E+09
–	–	–	81.4 nm	CCCCCCCCCOC(=O)CCCCCCCN(CCCCCCCC(=O)OC(CCCCCCCC)CCCCCCCC)CCCNC(=N)N [Compound 207, Heptadecan-9-yl 8-((3-guanidinopropyl)(8-(nonyloxy)-8-oxooctyl)amino)octanoate]	–	–	–
63.3 nm	–	–	–	CCCCCCCCCOC(=O)CCCCCCCN(CCCCCCCC(=O)OC(CCCCCCCC)CCCCCCCC)CCCn1cnc2c(N)ncnc21 [Compound 116, Heptadecan-9-yl 8-((3-(6-amino-9H-purin-9-yl)propyl)(8-(nonyloxy)-8-oxooctyl)amino)octanoate]	–	–	–
76.8 nm	–	–	–	CCCCCCCCC(CCCCCCCC)OC(=O)CCCCCCCN(CCO)CCCCCC(=O)OC1CCC(CCCCC)CC1 (stereo not shown) [Compound 68, Heptadecan-9-yl 8-((2-hydroxyethyl)(6-oxo-6-((4-pentylcyclohexyl)oxy)hexyl)amino)octanoate]	8.42E+09	3.98E+07	6.69E+07
91.6 nm	–	–	–	CCCCCCCCC(CCCCCCCC)OC(=O)CCCCCCCN(CCO)CCCC(=O)OCC1CC1CCCCCC (stereo not shown) [Compound 55, heptadecan-9-yl 8-((4-((2-hexylcyclopropyl)methoxy)-4-oxobutyl)(2-hydroxyethyl)amino)octanoate]	1.92E+09	7.02E+06	2.63E+07
77 nm	–	–	–	CCCCCCCCC(CCCCCCCC)OC(=O)CCCCCCCN(CCO)CCCC(=O)OC1CCC(CCCCC)CC1 (stereo not shown) [Compound 67, Heptadecan-9-yl 8-((2-hydroxyethyl)(4-oxo-4-((4-pentylcyclohexyl)oxy)butyl)amino)octanoate]	3.60E+09	1.68E+07	2.55E+07

SMILES	Size [1, 4]	EE [3]	Size [1, 5]	Size ([1]; Table 1D, compositions for subcutaneous administration, # formulated with hEPO mRNA)	Total Flux, Liver [2]	Total Flux, Lung [2]	Total Flux, Spleen [2]
CCCCCCCCC(CCCCCCCC)OC(=O)CCCCCCCN(CCO)CCCC(=O)OCCCC [Compound 51, heptadecan-9-yl 8-((4-butoxy-4-oxobutyl)(2-hydroxyethyl)amino) octanoate]	–	89.83%	–	–	2.49E+07	3.67E+05	2.80E+07
